Test results taken from PMC10233829 (ACS Omega, 2023).
≈ marks a conversion by molar mass, not a printed value.

Key:
[1] = test system: E. cloacae 8; assay: MIC, twofold microdilution, clinical strain; type: cell-based, Escherichia cloacae; details: Enterobacter cloacae, 8; clinical strain, 18 h
[2] = test system: P. aeruginosa 37; assay: MIC, twofold microdilution, clinical strain; type: cell-based; details: Pseudomonas aeruginosa, 18 h
[3] = test system: S. aureus 180; assay: MIC, twofold microdilution, clinical strain; type: cell-based; details: Staphylococcus aureus, 18 h
[4] = test system: P. aeruginosa ATCC 15442; assay: MIC, twofold microdilution, standard strain; type: cell-based, Pseudomonas aeruginosa
[5] = test system: E. coli 520; assay: MIC, twofold microdilution, clinical strain; type: cell-based; details: Escherichia coli, 18 h
[6] = test system: K. pneumoniae 28; assay: MIC, twofold microdilution, clinical strain; type: cell-based; details: Klebsiella pneumoniae, 18 h
[7] = test system: S. aureus T5591; assay: MIC, twofold microdilution, clinical strain; type: cell-based, Staphylococcus aureus; details: Staphylococcus aureus, T5591, 18 h
[8] = test system: S. aureus ATCC 25923; assay: MIC, twofold microdilution, standard strain; type: cell-based; details: Staphylococcus aureus, ATCC25923, 18 h
[9] = test system: S. epidermidis ATCC 35984; assay: MIC, twofold microdilution, standard strain; type: cell-based; details: Staphylococcus epidermidis, ATCC35984, 18 h
[10] = test system: E. coli ATCC 25922; assay: MIC, twofold microdilution, standard strain; type: cell-based, Escherichia coli
[11] = test system: E. coli 600; assay: MIC, twofold microdilution, clinical strain; type: cell-based, Escherichia coli; details: Escherichia coli, 600, 18 h
[12] = test system: S. aureus NCTC 4163; assay: MIC, twofold microdilution, standard strain; type: cell-based; details: Staphylococcus aureus, NCTC4163, 18 h
[13] = test system: K. pneumoniae 510; assay: MIC, twofold microdilution, clinical strain; type: cell-based, Klebsiella pneumoniae
[14] = test system: PC3 cells; assay: MTT assay, cytotoxic activity; type: cell-based, human; details: Homo sapiens, PC-3, 72 h, MTT, 72 h
Method in brief: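 PC3 cells were grown at 37 °C/5% CO2 and exposed to test compounds. Viability came from MTT reduction, as test absorbance over untreated-control absorbance × 100%.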

[15] = test system: M. tuberculosis Spec. 192; assay: Tuberculostatic activity, Microplate Alamar Blue Assay (MIC); type: cell-based; details: Mycobacterium tuberculosis, MABA, read-out: MIC M. tuberculosis Spec. 192 (sensitive to tuberculostatics)
[16] = test system: S. aureus ATCC 29213; assay: MIC, twofold microdilution, standard strain; type: cell-based; details: Staphylococcus aureus, ATCC29213, 18 h
[17] = test system: M. tuberculosis H37Rv; assay: Tuberculostatic activity, Microplate Alamar Blue Assay (MIC); type: cell-based, Mycobacterium tuberculosis; details: Mycobacterium tuberculosis, H37RV; MABA; read-out: MIC M. tuberculosis H37Rv
[18] = test system: S. aureus 5595; assay: MIC, twofold microdilution, clinical strain; type: cell-based; details: Staphylococcus aureus, 18 h
[19] = test system: S. aureus ATCC 6538; assay: MIC, twofold microdilution, standard strain; type: cell-based, Staphylococcus aureus
[20] = test system: S. epidermidis KR4243/1; assay: MIC, twofold microdilution, clinical strain; type: cell-based; details: Staphylococcus epidermidis, 18 h
[21] = test system: S. epidermidis 4341; assay: MIC, twofold microdilution, clinical strain; type: cell-based; details: Staphylococcus epidermidis, 18 h
[22] = test system: E. coli 951; assay: MIC, twofold microdilution, clinical strain; type: cell-based; details: Escherichia coli, 18 h
[23] = test system: S. aureus T5595; assay: MIC, twofold microdilution, clinical strain; type: cell-based, Staphylococcus aureus; details: Staphylococcus aureus, T5595, 18 h
[24] = test system: P. aeruginosa 659; assay: MIC, twofold microdilution, clinical strain; type: cell-based; details: Pseudomonas aeruginosa, 18 h
[25] = test system: clinical bacterial strains; assay: MIC, clinical isolates as groups of strains; type: cell-based; details: S. aureus 180 and 5595
[26] = test system: S. epidermidis 5253; assay: MIC, twofold microdilution, clinical strain; type: cell-based, Staphylococcus epidermidis; details: Staphylococcus epidermidis, 5253, 18 h
[27] = test system: S. epidermidis ATCC 12228; assay: MIC, twofold microdilution, standard strain; type: cell-based; details: Staphylococcus epidermidis, ATCC12228, 18 h
[28] = test system: S. pasteuri KR 4358; assay: MIC, twofold microdilution, clinical strain; type: cell-based; details: Staphylococcus pasteuri, KR4358, 18 h
[29] = MTT assay, cytotoxic activity; type: cell-based; details: human, HaCaT cells (immortal keratinocytes); MTT, 72 h, normal cell line; read-out: IC50 HaCaT
Method in brief: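 MTT assay on cells grown at 37 °C/5% CO2. Viability is expressed as relative MTT reduction: test absorbance divided by untreated-control absorbance, ×100%.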

In the case of `O=C(O)c1cn(C2CC2)c2cc(N3CCN(C(=O)CCCBr)CC3)c(F)cc2c1=O` [Compound 10, 7-[4-(4-Bromobutyryl)-piperazin-1-yl]-1-cyclopropyl-6-fluoro-4-oxo-1,4-dihydro-quinoline-3-carboxylic Acid], the MIC [1] is reported as 0.05 mg/L (≈ 0.104 µM), the MIC [2] is reported as 0.8 mg/L (≈ 1.67 µM) and the MIC [3] is reported as 0.8 mg/L (≈ 1.67 µM). The MIC ([4]; Pseudomonas aeruginosa, ATCC15442, standard strain, 18 h) was 0.1 mg/L (≈ 0.208 µM), the “MIC used in biofilm eradication assay, P. aeruginosa 15442” value ([4]; Table S1, MIC) was 0.100 mg/L (≈ 0.208 µM) and the MIC [5] was 0.1 mg/L (≈ 0.208 µM). For the same compound, the MIC [6] was greater than 25.6 mg/L, the MIC [7] was 0.8 mg/L (≈ 1.67 µM) and the MIC [8] was 0.4 mg/L (≈ 0.833 µM). For the same compound, the MIC [9] was 0.1 mg/L (≈ 0.208 µM), the MIC ([10]; Escherichia coli, ATCC25922, standard strain, 18 h) was 0.025 mg/L (≈ 0.052 µM) and the “MIC used in biofilm eradication assay, E. coli ATCC 25922” value ([10]; Table S1, MIC) was 0.025 mg/L (≈ 0.052 µM). For the same compound, the MIC [11] was 0.05 mg/L (≈ 0.104 µM), the MIC [12] was 0.2 mg/L (≈ 0.416 µM) and the “share of the reference (CP) activity” value ([13]; Klebsiella pneumoniae rods) was 62.5%. For the same compound, the MIC ([13]; Klebsiella pneumoniae, 510, clinical strain, 18 h) was 6.4 mg/L (≈ 13.3 µM), the IC50 [14] was 84.1 ± 7.3 µM and the MIC [15] was 0.5 mg/L (≈ 1.04 µM). It also gave an MIC [16] of 0.4 mg/L (≈ 0.833 µM), an MIC [17] of 1 mg/L (≈ 2.08 µM) and an MIC [18] of 0.8 mg/L (≈ 1.67 µM). For the same compound, the MIC ([19]; Staphylococcus aureus, ATCC6538, standard strain, 18 h) was 0.2 mg/L (≈ 0.416 µM), the “MIC used in biofilm eradication assay, S. aureus 6538” value ([19]; Table S1, MIC) was 0.200 mg/L (≈ 0.416 µM) and the MIC [20] was 0.4 mg/L (≈ 0.833 µM). It also gave an MIC [21] of 25.6 mg/L (≈ 53.3 µM), an MIC [22] of 0.4 mg/L (≈ 0.833 µM) and an MIC [23] of 0.8 mg/L (≈ 1.67 µM). The MIC [24] was 0.8 mg/L (≈ 1.67 µM), the “share of CP inhibitory activity” value [25] was 62.5% and the MIC [26] was greater than 25.6 mg/L. It also gave an MIC [27] of 0.2 mg/L (≈ 0.416 µM), an MIC [28] of 0.2 mg/L (≈ 0.416 µM) and an IC50 at 72 h [29] of 89.1 ± 2.1 µM.
